Measured values taken from patent US20020004679A1, “Topoisomerase inhibitors for prevention of restenosis” (Quanam Medical Corporation, priority 1998, published 2002).

System: coronary arteries of pigs
Assay: Drug-loaded polymer stent implanted in pig coronary arteries for one month; morphometric analysis of late loss and percent stenosis
Assay type: in vivo, pig (Domestic Farm Swine)
Conditions: overall conclusion from the pig coronary artery stent studies
Description: Boundaries of a selected coronary artery segment were detected automatically from optically magnified and video-digitized regions of interest. The catheter used for insertion of the stents was used as a scaling device to determine the dimensions of the artery at the site of implantation. The original vessel diameter at the time of implantation was determined.
The catheter used for insertion of the stents was used as a scaling device to determine the dimensions of the artery at the site of implantation. The original vessel diameter at the time of implantation was determined.

Q: Which “inhibition of undesirable cell growth associated with vessel injury during coronary angioplasty and stent insertion” value does the source give for CC[C@@]1(O)C(=O)OCc2c1cc1n(c2=O)Cc2cc3ccccc3nc2-1 [camptothecin, Camptothecin] here?
A: effective to inhibit the undesirable cell growth
